According to patent publication US20210228463A1, “COMPOSITION FOR FAT FORMATION INHIBITION AND BODY FAT REDUCTION, CONTAINING HYDRANGENOL AS ACTIVE INGREDIENT” (COSMAX BIO CO., LTD., priority 2019, published 2021):

How the values were obtained:
[1] = system: mammalian target of rapamycin (mTOR); experiment: Western blotting of p-mTOR in adipocytes; assay type: cell-based; settings: 3T3-L1 differentiated for 10 days, hydrangenol 2.5 ug/ml, 24 hours, FIG. 3
Protocol: The mechanism of reducing triglyceride in adipocytes was examined for the hydrangenol-containing hydrangea (Hydrangea serrata) and hydrangenol. A pre-adipocyte 3T3-L1 was differentiated for 10 days and treated with hydrangea (Hydrangea serrata) (25 ug/ml) and hydrangenol (2.5 ug/ml) for 24 hours, respectively. Thereafter, the cells were lysed using a modified LIPA buffer, and each 20 ug thereof was used for analysis. p-mTOR(ab109268, Abcam), p-FOXO1(9461S, Cell Signaling), PPARγ(sc-7273, Santa Cruz), and β-actin(A5316, Sigma) primary antibodies were used for analysis, respectively.

[2] = Effects of WHS on liver and kidney (serum GOT, GPT, BUN); assay type: in vivo; settings: obese mice (HFD) + oral orlistat
Protocol: To analyze in vivo anti-obesity efficacy of WHS, animal models of obesity were first prepared. 8-week-old male C57BL/6N mice (specific-pathogen-free (SPF) grade, 20±2 g, Orient Bio) were set into 7 groups as follows, and 10 mice per each group were tested: as normal control groups, normal mice (con) with no high fat diet and no administration, and obese mice (HFD) with induction of obesity by 30% high fat diet and no administration, and as a positive control group, obese mice with oral administration of orlistat which is an anti-obesity agent. As experimental groups, obese mice with oral administration of WHS of 75 mg/kg, 150 mg/kg, or 300 mg/kg, and normal mice with oral administration of WHS of 300 mg/kg were used. Further, experiments were performed by dividing mice into those which were administered with WHS for 12 weeks at the same time with induction of obesity, and those which were administered with WHS after induction of obesity for 10 weeks. WHS was orally administered for 5 days per week during the administration period. A dark: light cycle was maintained at intervals of 12 hours: 12 hours, and mice were allowed to free access to water. To examine whether WHS induced liver and kidney damage in mice, glutamic oxalacetic transaminase (GOT), glutamic pyruvate transaminase (GPT), and blood urea nitrogen (BUN) of the WHS-administered group with induction of obesity were measured by serum analysis using a biochemical analyzer (AU480 Chemistry Analyzer, Beckman coulter, Calif., USA).

Row | SMILES | phosphorylation of mammalian target of rapamycin (mTOR) [1] | BUN [2] [mg/dL] | GOT [2] [U/L] | GPT [2] [U/L]
1 | O=C1OC(c2ccc(O)cc2)Cc2cccc(O)c21 (stereo not shown) [HG, 8-hydroxy-3-(4-hydroxyphenyl)-3,4-dihydroisochromen-1-one] | reduce |  |  | 
2 | CCCCCCCCCCC[C@@H](C[C@@H]1OC(=O)[C@H]1CCCCCC)OC(=O)[C@H](CC(C)C)NC=O [Orlistat, orlistat] |  | 19.89 | 63 | 17.6
